What was measured:
[1] = target: T1, rSmLDH (SmLDH1, lactate dehydrogenase) (Spirometra erinaceieuropaei, UniProt E3SW74); test: LDH activity at […] nm, Lineweaver-Burk Ki (lactate oxidation; reduction Ki […], IC50 […]); type: biochemical
T1 construct: gene LDH; recombinant SmLDH1 (GenBank ADK62519.1, 338 aa), pQE-80L, E. coli BL21
T1 sequence (E3SW74 1-338): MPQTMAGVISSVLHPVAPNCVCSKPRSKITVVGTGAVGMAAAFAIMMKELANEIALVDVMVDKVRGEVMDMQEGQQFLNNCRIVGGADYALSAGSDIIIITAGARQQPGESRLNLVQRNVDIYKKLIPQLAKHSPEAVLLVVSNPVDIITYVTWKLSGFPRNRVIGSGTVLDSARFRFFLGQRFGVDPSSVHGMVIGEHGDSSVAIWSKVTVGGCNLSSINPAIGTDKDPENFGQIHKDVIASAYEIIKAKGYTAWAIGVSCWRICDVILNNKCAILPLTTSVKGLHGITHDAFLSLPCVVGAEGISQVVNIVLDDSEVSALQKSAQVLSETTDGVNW

[2] = target: T1, rSmLDH (SmLDH1, lactate dehydrogenase); test: LDH activity at […] nm, Lineweaver-Burk Ki (lactate oxidation; reduction Ki […]); type: biochemical
[3] = target: T1, rSmLDH (SmLDH1, lactate dehydrogenase); test: as above; type: biochemical; remark: listed apart in the source
[4] = target: T1, rSmLDH (SmLDH1, lactate dehydrogenase); test: LDH activity at […] nm, Lineweaver-Burk Ki (pyruvate reduction; oxidation Ki […]); type: biochemical
[5] = substrate: CC(=O)C(=O)O; test: enzyme kinetics, Km by Lineweaver-Burk plot; type: biochemical, Spirometra erinaceieuropaei; details: NADH key catalytic sites […] R, […] D and […] H (model)
[6] = substrate: CC(O)C(=O)O; test: enzyme kinetics, Km by Lineweaver-Burk plot; type: biochemical, Spirometra erinaceieuropaei; details: NAD+
[7] = substrate: NC(=O)C1=CN([C@@H]2O[C@H](COP(=O)(O)OP(=O)(O)OC[C@H]3O[C@@H](n4cnc5c(N)ncnc54)[C@H](O)[C@@H]3O)[C@@H](O)[C@H]2O)C=CC1; test: enzyme kinetics, Km by Lineweaver-Burk plot; type: biochemical, Spirometra erinaceieuropaei; details: varied: cofactor
[8] = substrate: NC(=O)c1ccc[n+]([C@@H]2O[C@H](COP(=O)([O-])OP(=O)(O)OC[C@H]3O[C@@H](n4cnc5c(N)ncnc54)[C@H](O)[C@@H]3O)[C@@H](O)[C@H]2O)c1; test: enzyme kinetics, Km by Lineweaver-Burk plot; type: biochemical, Spirometra erinaceieuropaei; details: varied: cofactor

`Cc1cc2c(C(C)C)c(O)c(O)c(C=O)c2c(O)c1-c1c(C)cc2c(C(C)C)c(O)c(O)c(C=O)c2c1O` [Gsp, Gossypol] showed a Ki [1] of 41.7 µM.

In the case of `O=C(O)c1cccnc1` [Niacin, Nicotinic Acid], the Ki [2] is reported as 2090 µM.

Molecule `O=C(O)C(=O)O` [Oxalate] has a Ki [3] of 47.1 µM.

With `NC(=S)c1cccnc1` [Thio, Thionicotinamide] the Ki [4] was 89.4 µM.

B1: rSmLDH (SmLDH1, lactate dehydrogenase) (Spirometra erinaceieuropaei) (protein)
chain: MPQTMAGVISSVLHPVAPNCVCSKPRSKITVVGTGAVGMAAAFAIMMKELANEIALVDVMVDKVRGEVMDMQEGQQFLNNCRIVGGADYALSAGSDIIIITAGARQQPGESRLNLVQRNVDIYKKLIPQLAKHSPEAVLLVVSNPVDIITYVTWKLSGFPRNRVIGSGTVLDSARFRFFLGQRFGVDPSSVHGMVIGEHGDSSVAIWSKVTVGGCNLSSINPAIGTDKDPENFGQIHKDVIASAYEIIKAKGYTAWAIGVSCWRICDVILNNKCAILPLTTSVKGLHGITHDAFLSLPCVVGAEGISQVVNIVLDDSEVSALQKSAQVLSETTDGVNW
notes: recombinant SmLDH1 (GenBank ADK62519.1, 338 aa), pQE-80L, E. coli BL21
Work on B1 yielded a Km [5] of 4430 µM, a Km [6] of 75190 µM and a Km [7] of 490 µM. For the same molecule, the Km [8] was 480 µM.

Reference: article PMC10705530, “Lactate Dehydrogenase Gene Family in Spirometra mansoni (Cestoda: Diphyllobothriidea)—Phylogenetic Patterns and Molecular Characteristics” (Animals : an Open Access Journal from MDPI, 2023)
